Calls of active or inactive are those of the source.
Columns and labels:
[1] = target: T1, Eukaryotic translation initiation factor 2-alpha kinase 3 (Homo sapiens, UniProt Q9NZJ5); experiment: Counterscreen assay for PERK inhibitors: Dose response cell-based high throughput screening assay to measure inhibition of PERK at 6 hours. [Related pubchem assays: 1522, 1416 ]; assay type: functional
T1 sequence (Q9NZJ5 whole entry): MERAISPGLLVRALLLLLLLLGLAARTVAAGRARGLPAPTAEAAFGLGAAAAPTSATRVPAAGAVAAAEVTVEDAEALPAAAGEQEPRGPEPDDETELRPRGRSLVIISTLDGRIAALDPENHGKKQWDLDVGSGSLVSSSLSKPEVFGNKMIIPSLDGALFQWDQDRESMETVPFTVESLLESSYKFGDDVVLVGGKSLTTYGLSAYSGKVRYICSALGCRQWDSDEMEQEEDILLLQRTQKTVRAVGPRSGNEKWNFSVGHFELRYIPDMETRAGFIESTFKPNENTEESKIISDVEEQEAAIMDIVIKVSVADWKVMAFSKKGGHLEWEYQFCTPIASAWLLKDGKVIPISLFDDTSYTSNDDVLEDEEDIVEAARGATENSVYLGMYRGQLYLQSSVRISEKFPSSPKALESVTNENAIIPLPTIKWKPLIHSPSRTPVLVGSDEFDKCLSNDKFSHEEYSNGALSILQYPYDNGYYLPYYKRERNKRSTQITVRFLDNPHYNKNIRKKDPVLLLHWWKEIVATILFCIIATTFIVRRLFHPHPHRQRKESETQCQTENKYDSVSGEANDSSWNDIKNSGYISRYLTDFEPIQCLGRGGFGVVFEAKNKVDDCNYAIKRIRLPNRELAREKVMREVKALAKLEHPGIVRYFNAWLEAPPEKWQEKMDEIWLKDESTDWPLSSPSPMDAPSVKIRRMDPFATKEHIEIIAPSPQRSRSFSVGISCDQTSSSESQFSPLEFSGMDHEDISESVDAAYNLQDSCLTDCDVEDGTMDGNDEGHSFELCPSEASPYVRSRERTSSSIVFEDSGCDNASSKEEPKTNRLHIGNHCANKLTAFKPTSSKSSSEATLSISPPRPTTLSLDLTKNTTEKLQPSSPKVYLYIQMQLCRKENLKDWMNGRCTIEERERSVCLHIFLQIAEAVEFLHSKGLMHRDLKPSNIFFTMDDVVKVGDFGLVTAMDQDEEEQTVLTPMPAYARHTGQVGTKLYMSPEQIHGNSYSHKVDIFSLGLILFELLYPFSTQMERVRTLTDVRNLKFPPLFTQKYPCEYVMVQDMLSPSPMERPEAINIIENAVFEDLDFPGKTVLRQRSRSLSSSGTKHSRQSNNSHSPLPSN

[2] = target: T1, Eukaryotic translation initiation factor 2-alpha kinase 3; experiment: Dose response cell-based high-throughput screening assay to measure PERK inhibition. [Related pubchem assays: 1416 ]; assay type: functional
[3] = HEK-293T cell viability reduction – luminescence, B-cell screen hits, cytotoxicity control for BCR NF-kB inhibitor project, dose response (AID 489021); assay type: functional, cell-based;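 further: HEK-293T cells carrying an NF-kB luciferase reporter; cells exposed to compound for about 14 hours before viability readout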
[4] = target: T2, Delta-type opioid receptor (Homo sapiens, UniProt P41143); experiment: HTS Image-Based Screen for Agonists of the DOR Receptor. [Related pubchem assays (depositor defined):AID1777, AID1786, AID2133]; assay type: functional
T2 sequence (P41143 whole entry): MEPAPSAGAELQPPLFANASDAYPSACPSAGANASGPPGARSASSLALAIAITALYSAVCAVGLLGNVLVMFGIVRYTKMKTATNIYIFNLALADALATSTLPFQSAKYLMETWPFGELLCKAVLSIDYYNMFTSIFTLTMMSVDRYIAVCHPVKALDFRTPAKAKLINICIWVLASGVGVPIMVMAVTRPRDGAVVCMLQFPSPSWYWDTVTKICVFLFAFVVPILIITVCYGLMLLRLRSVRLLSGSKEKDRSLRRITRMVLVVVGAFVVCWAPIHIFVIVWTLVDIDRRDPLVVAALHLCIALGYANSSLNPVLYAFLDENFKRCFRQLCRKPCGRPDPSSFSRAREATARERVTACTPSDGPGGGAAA

[5] = target: Mu-type opioid receptor (Homo sapiens, UniProt P35372); experiment: HTS Image-Based Screen for Agonists of the MOR Receptor. [Related pubchem assays (depositor defined):AID1777, AID1785, AID1786, AID2133]; assay type: functional;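 further: imaging of beta-arrestin GFP recruitment into spots after receptor activation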
[6] = target: T2, Delta-type opioid receptor; experiment: HTS Image-Based Screen for Antagonists of the DOR Receptor. [Related pubchem assays (depositor defined):AID1777, AID1785, AID1786, AID2133]; assay type: functional
[7] = target: Beta-galactosidase (Escherichia coli, UniProt Q8VNN2); assay type: functional
[8] = target: T3, Kappa-type opioid receptor (Homo sapiens, UniProt P41145); assay type: functional
T3 sequence (P41145 whole entry): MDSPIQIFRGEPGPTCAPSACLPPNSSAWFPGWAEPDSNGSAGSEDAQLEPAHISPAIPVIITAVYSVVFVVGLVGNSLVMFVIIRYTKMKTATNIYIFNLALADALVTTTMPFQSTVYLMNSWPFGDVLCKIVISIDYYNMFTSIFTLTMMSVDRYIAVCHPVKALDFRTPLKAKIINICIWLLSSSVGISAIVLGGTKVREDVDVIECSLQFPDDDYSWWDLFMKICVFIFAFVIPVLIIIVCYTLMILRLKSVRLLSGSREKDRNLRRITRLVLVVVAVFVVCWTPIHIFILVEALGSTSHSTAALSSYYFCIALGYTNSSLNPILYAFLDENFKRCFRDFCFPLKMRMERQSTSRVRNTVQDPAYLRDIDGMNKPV

[9] = target: T3, Kappa-type opioid receptor; assay type: functional; remark: listed apart in the source
[10] = tested on: BJ; experiment: cells; assay type: functional, cell-based; settings: Homo sapiens
[11] = tested on: BJ; experiment: BJ-TERT fibroblast viability loss – cell-based, RAS-independent, luminescence, dose response (AID 1933); assay type: functional; settings: Homo sapiens
[12] = tested on: BJ; experiment: growth inhibition of engineered Ras-driven BJ cells – cell-based, alamar blue fluorescence, cherrypicked samples, dose response (AID 2631); assay type: functional; settings: Homo sapiens;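 further: confirmatory dose-response assay in RAS-dependent BJ fibroblasts engineered with TERT, LT and ST, with cytotoxicity read by fluorescence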
[13] = decrease of insulin promoter-GFP reporter – imaging, high-content screening, mouse beta cells (AID 1628); assay type: functional; settings: MIN6
[14] = DRD fibroblast viability loss – cell-based, non-viral oncogenic, luminescence, dose response (AID 1934); assay type: functional; settings: Homo sapiens
[15] = tested on: BJ; experiment: BJ-TERT-LT-ST fibroblast viability loss – cell-based, RAS-independent, luminescence, dose response (AID 1935); assay type: functional; settings: Homo sapiens;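 further: BJ fibroblasts immortalized with TERT plus LT and ST oncogenes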
[16] = MIN6 cell viability loss – mouse insulinoma, cytotoxicity control, dose response (AID 2122); assay type: functional;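 further: confirmatory high-throughput counterscreen run to flag cytotoxic compounds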
[17] = target: Troponin, cardiac muscle (Homo sapiens, UniProt P19429+P45379+P63316); experiment: Fluorescence-based biochemical high throughput dose response assay for activators of the calcium sensitivity of cardiac Regulated Thin Filaments (RTF). [Related pubchem assays (depositor defined):AID493008, AID493018, AID504382, AID504383]; assay type: protein-complex assay
[18] = target: T4, Voltage-gated N-type calcium channel alpha-1B subunit/Amyloid beta A4 precursor protein-binding family A member 1 (Homo sapiens, UniProt Q00975+Q02410); assay type: protein assay
T4 sequence (Q00975 whole entry): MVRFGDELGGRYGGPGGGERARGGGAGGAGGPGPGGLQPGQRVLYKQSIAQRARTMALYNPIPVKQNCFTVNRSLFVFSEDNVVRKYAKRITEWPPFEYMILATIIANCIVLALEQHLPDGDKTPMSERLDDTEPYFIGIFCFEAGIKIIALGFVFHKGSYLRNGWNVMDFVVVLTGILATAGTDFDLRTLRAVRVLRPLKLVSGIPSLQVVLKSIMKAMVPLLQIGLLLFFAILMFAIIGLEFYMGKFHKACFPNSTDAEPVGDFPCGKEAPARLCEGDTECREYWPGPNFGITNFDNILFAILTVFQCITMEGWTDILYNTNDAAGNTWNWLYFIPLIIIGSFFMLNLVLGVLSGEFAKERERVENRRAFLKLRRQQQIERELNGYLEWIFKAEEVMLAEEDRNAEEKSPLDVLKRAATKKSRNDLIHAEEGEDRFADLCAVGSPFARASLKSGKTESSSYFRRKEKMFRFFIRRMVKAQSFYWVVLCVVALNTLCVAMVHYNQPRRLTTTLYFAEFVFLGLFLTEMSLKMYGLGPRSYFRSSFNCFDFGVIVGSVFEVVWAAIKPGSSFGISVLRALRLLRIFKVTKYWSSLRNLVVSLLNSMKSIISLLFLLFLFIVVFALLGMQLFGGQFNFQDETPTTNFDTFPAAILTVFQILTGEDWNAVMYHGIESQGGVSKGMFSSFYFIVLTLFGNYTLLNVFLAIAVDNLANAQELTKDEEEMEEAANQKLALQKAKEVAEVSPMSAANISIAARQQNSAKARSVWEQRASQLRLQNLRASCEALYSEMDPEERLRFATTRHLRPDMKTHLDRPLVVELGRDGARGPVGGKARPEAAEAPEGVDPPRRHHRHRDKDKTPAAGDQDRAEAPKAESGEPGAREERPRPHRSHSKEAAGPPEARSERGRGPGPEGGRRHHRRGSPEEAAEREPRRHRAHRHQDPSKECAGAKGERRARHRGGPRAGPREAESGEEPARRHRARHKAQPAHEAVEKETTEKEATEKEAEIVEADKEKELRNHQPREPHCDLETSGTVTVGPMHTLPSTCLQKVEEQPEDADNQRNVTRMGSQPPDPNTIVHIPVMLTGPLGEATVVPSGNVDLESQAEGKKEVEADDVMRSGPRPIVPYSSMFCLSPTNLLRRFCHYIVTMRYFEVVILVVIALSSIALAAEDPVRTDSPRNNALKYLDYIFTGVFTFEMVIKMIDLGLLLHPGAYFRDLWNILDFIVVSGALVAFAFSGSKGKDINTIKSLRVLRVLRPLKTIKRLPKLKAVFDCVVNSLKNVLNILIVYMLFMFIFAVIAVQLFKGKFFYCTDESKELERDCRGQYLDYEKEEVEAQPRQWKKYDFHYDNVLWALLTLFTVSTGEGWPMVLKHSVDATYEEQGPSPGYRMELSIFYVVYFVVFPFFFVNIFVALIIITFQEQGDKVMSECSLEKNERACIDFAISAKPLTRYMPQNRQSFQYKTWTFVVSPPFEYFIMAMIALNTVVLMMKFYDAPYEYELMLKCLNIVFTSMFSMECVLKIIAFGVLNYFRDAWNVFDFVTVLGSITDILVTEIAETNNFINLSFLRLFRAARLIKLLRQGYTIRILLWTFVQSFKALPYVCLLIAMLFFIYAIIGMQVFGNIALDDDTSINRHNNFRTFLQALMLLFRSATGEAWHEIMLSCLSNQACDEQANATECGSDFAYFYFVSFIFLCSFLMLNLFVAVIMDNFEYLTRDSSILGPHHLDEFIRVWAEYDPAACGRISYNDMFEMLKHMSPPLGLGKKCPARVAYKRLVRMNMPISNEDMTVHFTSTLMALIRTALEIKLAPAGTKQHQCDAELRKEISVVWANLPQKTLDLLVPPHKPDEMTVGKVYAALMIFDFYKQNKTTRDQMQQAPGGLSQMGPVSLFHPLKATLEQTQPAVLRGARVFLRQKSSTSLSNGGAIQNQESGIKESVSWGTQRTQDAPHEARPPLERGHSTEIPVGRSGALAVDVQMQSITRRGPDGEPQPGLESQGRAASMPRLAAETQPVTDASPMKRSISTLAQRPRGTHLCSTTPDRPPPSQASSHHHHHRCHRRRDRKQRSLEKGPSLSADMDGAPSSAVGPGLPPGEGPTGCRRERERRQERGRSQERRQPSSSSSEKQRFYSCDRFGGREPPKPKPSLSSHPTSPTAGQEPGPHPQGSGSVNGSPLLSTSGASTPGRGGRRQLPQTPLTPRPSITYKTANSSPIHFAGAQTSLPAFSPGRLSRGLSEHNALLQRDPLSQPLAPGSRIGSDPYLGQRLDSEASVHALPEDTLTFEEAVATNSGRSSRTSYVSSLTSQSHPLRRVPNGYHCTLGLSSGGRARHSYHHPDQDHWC
T4 sequence (Q02410 whole entry): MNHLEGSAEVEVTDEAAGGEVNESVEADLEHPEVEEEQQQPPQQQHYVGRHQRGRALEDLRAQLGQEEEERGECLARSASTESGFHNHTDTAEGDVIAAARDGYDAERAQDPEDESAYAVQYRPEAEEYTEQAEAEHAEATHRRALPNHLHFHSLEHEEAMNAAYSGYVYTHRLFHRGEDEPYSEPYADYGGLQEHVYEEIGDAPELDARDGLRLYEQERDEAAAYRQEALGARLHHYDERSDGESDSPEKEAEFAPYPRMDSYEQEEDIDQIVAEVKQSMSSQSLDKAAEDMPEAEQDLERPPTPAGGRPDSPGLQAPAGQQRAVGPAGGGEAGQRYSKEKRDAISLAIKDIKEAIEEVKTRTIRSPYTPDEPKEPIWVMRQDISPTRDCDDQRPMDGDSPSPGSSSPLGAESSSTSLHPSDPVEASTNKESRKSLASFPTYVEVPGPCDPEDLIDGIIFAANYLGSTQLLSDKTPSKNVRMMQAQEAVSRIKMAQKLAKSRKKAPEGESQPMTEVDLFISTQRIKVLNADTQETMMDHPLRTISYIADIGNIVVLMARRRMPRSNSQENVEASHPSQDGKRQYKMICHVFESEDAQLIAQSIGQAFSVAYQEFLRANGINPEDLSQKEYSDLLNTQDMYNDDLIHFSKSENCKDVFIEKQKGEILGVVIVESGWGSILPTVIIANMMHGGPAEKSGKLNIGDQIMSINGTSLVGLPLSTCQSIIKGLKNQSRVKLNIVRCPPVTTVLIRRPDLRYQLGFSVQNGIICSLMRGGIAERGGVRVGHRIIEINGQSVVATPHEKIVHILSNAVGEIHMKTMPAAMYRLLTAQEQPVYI

[19] = target: DNA dC->dU-editing enzyme APOBEC-3A (Homo sapiens, UniProt P31941); experiment: A3A deaminase inhibition for selectivity – biochemical, dose response (AID 504722); assay type: functional
Sequence of DNA dC->dU-editing enzyme APOBEC-3A (P31941 whole entry): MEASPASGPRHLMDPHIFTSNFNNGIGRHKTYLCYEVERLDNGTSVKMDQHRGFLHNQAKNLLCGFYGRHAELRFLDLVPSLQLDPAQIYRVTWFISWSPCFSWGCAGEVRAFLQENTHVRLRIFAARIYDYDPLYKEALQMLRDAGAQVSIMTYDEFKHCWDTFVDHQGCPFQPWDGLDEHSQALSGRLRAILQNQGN

[20] = target: DNA dC->dU-editing enzyme APOBEC-3G (Homo sapiens, UniProt Q9HC16); experiment: Dose Response confirmation of small molecule APOBEC3G DNA Deaminase Inhibitors via a fluorescence-based single-stranded DNA deaminase assay. [Related pubchem assays (depositor defined):AID493012, AID493028]; assay type: functional
[21] = target: T5, Mannose-6-phosphate isomerase (Homo sapiens, UniProt P34949); experiment: MPI enzyme activity inhibition – biochemical, fluorescence intensity, coupled assay, primary screen (AID 1209)
T5 sequence (P34949 whole entry): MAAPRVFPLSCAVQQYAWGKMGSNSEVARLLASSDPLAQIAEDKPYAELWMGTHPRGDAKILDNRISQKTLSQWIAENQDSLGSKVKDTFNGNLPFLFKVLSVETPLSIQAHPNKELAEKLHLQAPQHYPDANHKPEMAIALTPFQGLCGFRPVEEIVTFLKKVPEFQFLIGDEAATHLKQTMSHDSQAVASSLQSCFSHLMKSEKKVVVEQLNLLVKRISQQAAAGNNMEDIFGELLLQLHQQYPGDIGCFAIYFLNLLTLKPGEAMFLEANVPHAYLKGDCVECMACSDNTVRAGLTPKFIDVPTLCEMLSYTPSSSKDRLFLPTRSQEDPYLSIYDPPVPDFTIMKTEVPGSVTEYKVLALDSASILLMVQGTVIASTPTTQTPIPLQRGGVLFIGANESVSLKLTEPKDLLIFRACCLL

[22] = target: Eukaryotic translation initiation factor 4E (Mus musculus, UniProt P63073); experiment: blockers of eIF4G binding by eIF4E – biochemical, TR-FRET, dose response (AID 855); assay type: functional;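 further: potency for disrupting eIF4E binding to eIF4GI seen as loss of FRET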
[23] = target: T4, Voltage-gated N-type calcium channel alpha-1B subunit/Amyloid beta A4 precursor protein-binding family A member 1; assay type: protein assay; remark: listed apart in the source
[24] = target: Aspartyl aminopeptidase (Plasmodium falciparum 3D7, UniProt Q8I2J3)
[25] = target: Procathepsin L (Homo sapiens, UniProt P07711)
Sequence of Procathepsin L (P07711 whole entry): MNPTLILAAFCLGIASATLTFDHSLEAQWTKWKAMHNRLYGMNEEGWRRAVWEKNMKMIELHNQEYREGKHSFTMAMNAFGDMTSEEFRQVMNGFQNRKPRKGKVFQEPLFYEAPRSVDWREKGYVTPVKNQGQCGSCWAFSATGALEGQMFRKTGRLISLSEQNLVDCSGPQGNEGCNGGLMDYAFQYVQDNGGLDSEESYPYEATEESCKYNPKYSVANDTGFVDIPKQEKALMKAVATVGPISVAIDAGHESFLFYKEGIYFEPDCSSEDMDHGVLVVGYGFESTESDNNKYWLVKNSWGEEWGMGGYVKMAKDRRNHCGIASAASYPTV

[26] = target: T6, Cytochrome P450 2D6 (Homo sapiens, UniProt P10635);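 further: CYP2D6 member of a cytochrome P450 panel assay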
T6 sequence (P10635 whole entry): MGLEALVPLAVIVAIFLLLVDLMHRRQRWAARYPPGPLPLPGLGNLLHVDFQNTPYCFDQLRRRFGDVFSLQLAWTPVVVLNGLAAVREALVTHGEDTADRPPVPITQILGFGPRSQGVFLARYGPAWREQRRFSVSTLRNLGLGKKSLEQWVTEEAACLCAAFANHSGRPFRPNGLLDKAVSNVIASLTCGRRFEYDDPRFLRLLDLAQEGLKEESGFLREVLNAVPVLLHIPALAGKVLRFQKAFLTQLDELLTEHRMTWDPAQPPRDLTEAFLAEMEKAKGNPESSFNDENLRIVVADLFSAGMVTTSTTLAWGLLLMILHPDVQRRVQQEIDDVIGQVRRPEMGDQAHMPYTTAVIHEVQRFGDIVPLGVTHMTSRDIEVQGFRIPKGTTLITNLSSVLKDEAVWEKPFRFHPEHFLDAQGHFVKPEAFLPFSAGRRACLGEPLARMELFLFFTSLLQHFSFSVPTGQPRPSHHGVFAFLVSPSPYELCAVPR

[27] = target: T6, Cytochrome P450 2D6; remark: listed apart in the source

C/N=C1\SC(CC(=O)Nc2ccccc2F)C(=O)N1C (stereo unspecified)
EC50 [1]: > 55.7 µM (not active)
EC50 [2]: > 55.7 µM (not active)

COc1ccccc1/C=C1\SC(=S)N(CCC(=O)NC2=NCCS2)C1=O
IC50 [3]: > 80 µM (inactive)

COc1ccccc1/N=c1\scc(-c2ccc3c(c2)NC(=O)CO3)n1CC1CCCO1 (stereo unspecified)
EC50 [4]: > 32 µM (inactive)
EC50 [5]: > 32 µM (inactive)
IC50 [6]: > 32 µM (inactive)
EC50 [7]: > 31.5 µM (inactive)
IC50 [8]: > 32 µM
IC50 [9]: 5.52 µM (active)

O=C(NCc1cccnc1)c1ccc(NC(=O)c2cccc([N+](=O)[O-])c2)cc1
EC50 [10]: 2.19 µM (inconclusive)
EC50 [11]: 27.4 µM (active)
EC50 [12]: 36 µM (active)
IC50 [13]: 0.576 µM (active)
EC50 [14]: > 150 µM (not active)
EC50 [15]: 19.3 µM (active)
IC50 [16]: > 16 µM (inactive)

CCOC(=O)c1cc2n(c1N)-c1ccccc1C2=O
EC50 [17]: 24.4 µM (inactive)

N#Cc1cccc(/N=c2\ssnc2Cl)c1
IC50 [18]: 10.9 µM (active)
IC50 [19]: > 100 µM (inactive)
IC50 [20]: 7.4 µM (active)
IC50 [21]: 26.7 µM (active)
IC50 [22]: 50 µM (inactive)
IC50 [23]: 11.3 µM (active)

CCOC(=O)C1=C(CS(=O)(=O)c2ccc(F)cc2)NC(=O)NC1c1ccc(O)c(O)c1 (stereo unspecified)
IC50 [24]: 1.52 µM (active)
IC50 [25]: > 59.6 µM (not active)

Nc1ccc2[nH]c(-c3ccc(N)c(Cl)c3)nc2c1
IC50 [18]: 4.1 µM (active)
IC50 [23]: 35.6 µM (active)

CC(=O)Oc1cc(C(C)C)c(OCCN(C)C)cc1C [MOXISYLYTE]
AC50 [26]: 10 µM (inconclusive)
AC50 [27]: 10 µM (inconclusive)

CC(C)(C)c1ccc(C(=O)Oc2ccccc2CCC(=O)O)cc1
EC50 [1]: > 55.7 µM (not active)
EC50 [2]: > 55.7 µM (not active)
